# Results as given in patent publication US20250368666A1, “INDAZOLE COMPOUNDS” (TYRA BIOSCIENCES, INC., priority 2022, published 2025).
# pIC50: −log10 of the molar value. Counter-ions that a name gives are not always drawn. Like-named read-outs stand apart in the source and are kept apart here.
# Key:
# [1] = molecular target: T1, FGFR1 (Homo sapiens, UniProt P11362); experiment: Kinase binding assay (kinase-tagged T7 phage, affinity beads, qPCR), Kd; conditions: read-out: FGFR1 (Kd nM)
# T1 construct: made in house; host or cells: E. coli (BL21-derived), T7 phage
# T1 sequence (P11362 22-822): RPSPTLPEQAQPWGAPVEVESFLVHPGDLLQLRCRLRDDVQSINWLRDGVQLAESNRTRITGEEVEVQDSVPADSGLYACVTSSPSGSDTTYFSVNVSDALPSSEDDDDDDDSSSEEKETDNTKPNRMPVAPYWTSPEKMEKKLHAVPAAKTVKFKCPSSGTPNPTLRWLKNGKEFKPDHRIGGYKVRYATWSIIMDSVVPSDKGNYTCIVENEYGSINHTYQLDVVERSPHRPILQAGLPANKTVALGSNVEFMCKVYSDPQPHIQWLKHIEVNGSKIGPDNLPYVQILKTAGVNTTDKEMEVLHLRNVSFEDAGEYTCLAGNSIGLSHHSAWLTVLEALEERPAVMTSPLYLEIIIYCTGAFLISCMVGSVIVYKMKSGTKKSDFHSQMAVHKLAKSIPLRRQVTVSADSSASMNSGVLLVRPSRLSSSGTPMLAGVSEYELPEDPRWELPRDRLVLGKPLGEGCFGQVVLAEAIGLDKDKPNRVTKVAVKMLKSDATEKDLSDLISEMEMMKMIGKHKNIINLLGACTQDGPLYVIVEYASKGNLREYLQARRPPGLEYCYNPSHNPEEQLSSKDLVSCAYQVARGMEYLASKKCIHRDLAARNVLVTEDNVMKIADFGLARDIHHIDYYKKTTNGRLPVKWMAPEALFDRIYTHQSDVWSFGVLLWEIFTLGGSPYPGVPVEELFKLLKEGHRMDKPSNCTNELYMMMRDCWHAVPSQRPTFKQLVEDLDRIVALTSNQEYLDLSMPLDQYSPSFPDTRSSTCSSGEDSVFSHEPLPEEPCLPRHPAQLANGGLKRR
# In short: (§1)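 Readout was qPCR of kinase eluted from ligand-coated affinity beads after competition with test compound. Kinases were expressed as T7 phage fusions in E. coli. Binding constants were derived by non-linear least-squares Hill fitting, Hill slope −1.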
# [2] = molecular target: T2, FGFR2 (Homo sapiens, UniProt P21802); experiment: as above; conditions: read-out: FGFR2 (Kd nM)
# T2 construct: made in house; host or cells: E. coli (BL21-derived), T7 phage
# T2 sequence (P21802 22-821): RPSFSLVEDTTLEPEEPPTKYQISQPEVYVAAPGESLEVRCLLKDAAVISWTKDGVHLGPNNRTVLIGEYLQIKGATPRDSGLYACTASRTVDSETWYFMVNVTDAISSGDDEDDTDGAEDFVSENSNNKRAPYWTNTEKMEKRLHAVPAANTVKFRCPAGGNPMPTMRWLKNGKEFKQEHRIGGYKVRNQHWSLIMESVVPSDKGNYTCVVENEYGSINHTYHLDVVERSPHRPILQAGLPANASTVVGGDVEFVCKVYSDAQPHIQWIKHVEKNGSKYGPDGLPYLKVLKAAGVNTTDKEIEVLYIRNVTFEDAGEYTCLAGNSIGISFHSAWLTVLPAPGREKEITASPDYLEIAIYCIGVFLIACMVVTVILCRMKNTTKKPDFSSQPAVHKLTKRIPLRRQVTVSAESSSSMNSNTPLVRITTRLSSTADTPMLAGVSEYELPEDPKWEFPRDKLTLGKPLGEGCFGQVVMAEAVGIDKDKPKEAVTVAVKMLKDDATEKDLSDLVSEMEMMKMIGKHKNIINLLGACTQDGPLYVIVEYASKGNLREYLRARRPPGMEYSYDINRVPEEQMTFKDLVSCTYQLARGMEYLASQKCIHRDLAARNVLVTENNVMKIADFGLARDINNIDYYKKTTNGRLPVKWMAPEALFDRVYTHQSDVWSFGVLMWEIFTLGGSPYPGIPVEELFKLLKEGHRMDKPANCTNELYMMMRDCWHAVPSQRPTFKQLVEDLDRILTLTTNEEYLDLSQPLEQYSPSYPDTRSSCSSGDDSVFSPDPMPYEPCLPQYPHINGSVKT
# In short: as §1
# [3] = molecular target: T3, FGFR3 (Homo sapiens, UniProt P22607); experiment: as above; conditions: read-out: FGFR3 (Kd nM)
# T3 construct: made in house; host or cells: E. coli (BL21-derived), T7 phage
# T3 sequence (P22607 23-806): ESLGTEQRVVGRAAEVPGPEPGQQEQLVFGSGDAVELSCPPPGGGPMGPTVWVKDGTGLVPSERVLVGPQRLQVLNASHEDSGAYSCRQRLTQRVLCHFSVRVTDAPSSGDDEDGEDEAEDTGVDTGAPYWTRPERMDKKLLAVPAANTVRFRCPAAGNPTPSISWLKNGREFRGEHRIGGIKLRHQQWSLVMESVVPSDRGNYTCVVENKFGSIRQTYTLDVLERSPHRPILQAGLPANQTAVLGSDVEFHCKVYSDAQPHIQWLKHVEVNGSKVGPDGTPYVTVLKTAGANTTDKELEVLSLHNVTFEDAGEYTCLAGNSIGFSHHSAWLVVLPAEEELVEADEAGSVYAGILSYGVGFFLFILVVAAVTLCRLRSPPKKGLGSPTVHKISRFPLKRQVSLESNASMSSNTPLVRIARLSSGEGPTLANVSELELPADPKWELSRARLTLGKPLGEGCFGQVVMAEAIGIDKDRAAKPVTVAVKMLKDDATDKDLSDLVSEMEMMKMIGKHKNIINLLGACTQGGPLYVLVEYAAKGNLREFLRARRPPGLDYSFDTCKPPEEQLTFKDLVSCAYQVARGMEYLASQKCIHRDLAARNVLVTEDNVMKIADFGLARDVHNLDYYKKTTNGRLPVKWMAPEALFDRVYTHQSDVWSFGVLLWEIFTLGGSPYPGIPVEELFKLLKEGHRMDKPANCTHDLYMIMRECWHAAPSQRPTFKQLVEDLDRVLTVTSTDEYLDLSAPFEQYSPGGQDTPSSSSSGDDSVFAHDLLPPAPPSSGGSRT
# In short: as §1
# [4] = molecular target: T4, FGFR3 (V555M) (Homo sapiens, UniProt P22607, V555M); experiment: as above; conditions: V555M mutant; read-out: FGFR3 (V555M) (Kd nM)
# T4 construct: made in house; host or cells: E. coli (BL21-derived), T7 phage
# T4 sequence (P22607 23-806 V555M): as the sequence (P22607 23-806) above, with V533M counted along it
# In short: as §1
# [5] = molecular target: T5, FGFR4 (Homo sapiens, UniProt P22455); experiment: as above; conditions: read-out: FGFR4 (Kd nM)
# T5 construct: made in house; host or cells: E. coli (BL21-derived), T7 phage
# T5 sequence (P22455 22-802): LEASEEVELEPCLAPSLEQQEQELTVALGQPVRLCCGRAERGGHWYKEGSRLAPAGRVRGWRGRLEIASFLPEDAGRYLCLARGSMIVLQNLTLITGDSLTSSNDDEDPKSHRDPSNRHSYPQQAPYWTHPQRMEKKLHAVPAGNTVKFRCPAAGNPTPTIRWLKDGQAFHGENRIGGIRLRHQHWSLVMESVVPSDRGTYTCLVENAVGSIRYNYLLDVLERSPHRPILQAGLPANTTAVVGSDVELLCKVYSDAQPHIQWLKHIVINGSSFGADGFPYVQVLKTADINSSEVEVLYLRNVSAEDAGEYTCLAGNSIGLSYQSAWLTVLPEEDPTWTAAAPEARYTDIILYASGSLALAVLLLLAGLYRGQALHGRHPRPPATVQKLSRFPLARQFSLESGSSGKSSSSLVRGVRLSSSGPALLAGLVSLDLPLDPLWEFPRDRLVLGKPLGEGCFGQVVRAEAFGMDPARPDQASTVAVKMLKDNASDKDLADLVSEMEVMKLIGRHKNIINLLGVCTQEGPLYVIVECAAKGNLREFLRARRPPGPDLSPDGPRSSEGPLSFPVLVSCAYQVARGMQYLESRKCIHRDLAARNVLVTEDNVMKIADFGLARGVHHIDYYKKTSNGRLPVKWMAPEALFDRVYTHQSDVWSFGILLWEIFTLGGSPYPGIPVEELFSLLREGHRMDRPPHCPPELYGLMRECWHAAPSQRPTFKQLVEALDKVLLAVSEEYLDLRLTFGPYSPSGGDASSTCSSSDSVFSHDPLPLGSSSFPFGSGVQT
# In short: as §1
# [6] = tested on: KATO-III cell line (FGFR2 amplification); experiment: Cancer cell line cell viability assay (Cell Titer-Glo), 72 hr; type: cell-based; conditions: Homo sapiens, KATO III
# In short: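 Following overnight attachment, each line receives compound in triplicate across nine 4-fold dilutions starting at 3 μM, with DMSO backfill for equal solvent. Luminescence after Cell Titer-Glo 2.0 addition gives percent viability versus DMSO control, fitted by 4-parameter logistic for IC50.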
# [7] = tested on: KG-1 cell line (FGFR 1-fusion); experiment: as above; type: cell-based; conditions: Homo sapiens, KG-1, KG-1 cell line (FGFR1-fusion)
# In short: (§2)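 Cells seeded at 5,000-20,000/well, incubated overnight, then treated with a 9-dose, 4-fold dilution series from 3 μM in triplicate at 37° C, 5% CO2. Viability read by Cell Titer-Glo 2.0 luminescence as percent of DMSO control; IC50 from 4-parameter variable-slope sigmoidal fit.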
# [8] = tested on: RT112/84 cell line (FGFR3-fusion); experiment: as above; type: cell-based; conditions: Homo sapiens, RT112/84, RT112/84 cell line (FGFR3-fusion)
# In short: as §2
# [9] = tested on: HuH7 cell line (FGF19 amplification); experiment: Cancer cell line cell viability assay (Cell Titer-Glo), 120 hr; type: cell-based; conditions: Homo sapiens, Huh-7
# Excerpt: Experimental Purpose: To detect the change of intracellular ATP by Cell Titer-Glo® and to evaluate the inhibitory effect of the compounds on cancer cell lines by determining the in vitro IC50 value of the compounds.
# Cell Titer-Glo® 2.0 Luminescent cell viability assay reagent was purchased from Promega (Madison, WI). KG-1, KATO-III, and MDA-MB-453 cell lines were purchased from American Type Culture Collection (Manassas, VA). RT112/84 cell line was purchased from Millipore-Sigma (St. Louis, MO). HuH7 cells were purchased from Seikisui Xenotech (Kansas City, KS). RT112/84 and MDA-MB-453 cells were cultured in RPMI1640 media supplemented with 10% fetal bovine serum. KG-1 and KATO-III cell lines were cultured in IMDM media supplemented with 20% FBS. HuH7 cells were cultured in IMDM media supplemented with 10% FBS. Cultures were maintained at 37° C. in a humidified atmosphere of 5% CO2 and 95% air.
# Cell Viability Assay Procedure: Cells were plated in 96-well clear bottom/white plates (Corning #3903) at a range of densities depending on the optimal assay window (5,000-20,000 cells/well in […] of media), incubated overnight. The next day, test compound DMSO stock solutions were made at 10 mM and […] final concentration. Compounds were then added to cells in a 9-dose, 4-fold dilution series starting at 3 μM with an HP 300e Digital Dispenser (each dose was applied in triplicate). DMSO was backfilled to each well up to 301 nL total volume of test compound+DMSO, and a total of 301 nL DMSO was added to a control/no test compound well in triplicate. The cells in cell culture plates were incubated with the compounds at 37° C. and 5% CO2 for 72 hours-120 hours depending on the cell line. Then 50 μl of Cell Titer Glo 2.0 reagent was added to each well of the cell culture plates. The contents were covered from light and mixed on an orbital shaker at room temperature for minimum of 10 min. Luminescence was recorded by a Clariostar Plus Microplate Reader (BMG Labtech, Cary, NC). Cells were assessed as a percentage of DMSO only treated control cells. Curves were plotted and IC50 values were calculated using the GraphPad Prism 9 program based on a sigmoidal dose-response equation (log (inhibitor) vs. response—Variable slope, 4-parameter).
# [10] = kinase binding assay, 11-point 3-fold dilution series
Structure (SMILES),Kd [1] [nM],Kd [2] [nM],Kd [3] [nM],Kd [4] [nM],Kd [5] [nM],pIC50 [6],pIC50 [7],pIC50 [8],pIC50 [9],"Kd [1, 10] [nM]","Kd [2, 10] [nM]","Kd [3, 10] [nM]","Kd [5, 10] [nM]"
"C=CCNC1(C)CN(c2ccc(-c3n[nH]c4ccc(O[C@H](C)c5c(Cl)cncc5Cl)cc34)cn2)C1 [Example 232, (R)-N-ally1-1-(5-(5-(1-(3,5-dichloropyridin-4-yl)ethoxy)-1H-indazol-3-yl)pyridin-2-yl)-3-methylazetidin-3-amine]",1 to 50,1 to 50,1 to 50,1 to 50,1 to 50,7.30 to 10.00,6.70 to 7.30,7.30 to 10.00,,,,,
"CCNC1(C)CN(c2ncc(-c3n[nH]c4cc(OC)c(O[C@H](C)c5c(Cl)cncc5Cl)cc34)cc2C#N)C1 [Example 341, (R)-5-(5-(1-(3,5-Dichloropyridin-4-yl)ethoxy)-6-methoxy-1H-indazol-3-yl)-2-(3-(ethylamino)-3-methylazetidin-1-yl)nicotinonitrile HCl]",1 to 50,1 to 50,1 to 50,1 to 50,1 to 50,6.70 to 7.30,7.30 to 10.00,7.30 to 10.00,,,,,
"COc1cc2[nH]nc(-c3cc(C#N)c(N4CC(C)(NCC(C)C)C4)nn3)c2cc1O[C@H](C)c1c(Cl)cncc1Cl [Example 342, (R)-6-(5-(1-(3,5-dichloropyridin-4-yl)ethoxy)-6-methoxy-1H-indazol-3-yl)-3-(3-(isobutylamino)-3-methylazetidin-1-yl)pyridazine-4-carbonitrile]",1 to 50,1 to 50,1 to 50,,1 to 50,,,,6.70 to 7.30,,,,
"COc1cc2[nH]nc(-c3cc(C#N)c(N4CC(C)(NCC5CC5)C4)nn3)c2cc1O[C@H](C)c1c(Cl)cncc1Cl [Example 347, (R)-3-(3-((cyclopropyl-methyl)amino)-3-methylazetidin-1-yl)-6-(5-(1-(3,5-dichloropyridin-4-yl)ethoxy)-6-methoxy-1H-indazol-3-yl)pyridazine-4-carbonitrile]",1 to 50,1 to 50,1 to 50,,1 to 50,,,,7.30 to 10.00,,,,
"CCC1(NCC2CC2)CN(c2ncc(-c3n[nH]c4cc(OC)c(O[C@H](C)c5c(Cl)cncc5Cl)cc34)cc2C#N)C1 [Example 348, (R)-2-(3-((Cyclopropylmethyl)amino)-3-ethylazetidin-1-yl)-5-(5-(1-(3,5-dichloropyridin-4-yl)ethoxy)-6-methoxy-1H-indazol-3-yl)nicotinonitrile dihydrochloride]",1 to 50,1 to 50,1 to 50,,1 to 50,,,,7.30 to 10.00,,,,
"COc1cc2[nH]nc(-c3cc(C#N)c(N4CC(C)(N(C)C)C4)nn3)c2cc1O[C@H](C)c1c(Cl)cncc1Cl [Example 349, (R)-6-(5-(1-(3,5-dichloropyridin-4-yl)ethoxy)-6-methoxy-1H-indazol-3-yl)-3-(3-(dimethylamino)-3-methylazetidin-1-yl)pyridazine-4-carbonitrile]",1 to 50,1 to 50,1 to 50,,1 to 50,,,,7.30 to 10.00,,,,
"COc1cc2[nH]nc(-c3cnc(N4CC(CC#N)(NCC5CC5)C4)c(C#N)c3)c2cc1O[C@H](C)c1c(Cl)cnc(C)c1Cl [Example 350, (R)-2-(3-(Cyanomethyl)-3-((cyclopropyl-methyl)ami-no)azetidin-1-yl)-5-(5-(1-(3,5-dichloro-2-methylpyridin-4-yl)ethoxy)-6-methoxy-1H-indazol-3-yl)nicotinonitrile]",50 to 300,1 to 50,1 to 50,,1 to 50,,,,7.30 to 10.00,,,,
"COc1cc2[nH]nc(-c3cnc(N4CC(C)(NCC(C)C)C4)c(C#N)c3)c2cc1O[C@H](C)c1c(Cl)cnc(C)c1Cl [Example 355, 5-[5-[(1R)-1-(3,5-dichloro-2-methyl-4-pyridyl)ethoxy]-6-methoxy-1H-indazol-3-yl]-2-[3-(isobutylamino)-3-methyl-azetidin-1-yl]pyridine-3-carbonitrile]",1 to 50,50 to 300,1 to 50,,1 to 50,,,,6.70 to 7.30,,,,

# Next, values leading:
Kd [1] [nM],Kd [2] [nM],Kd [3] [nM],Kd [4] [nM],Kd [5] [nM],pIC50 [6],pIC50 [7],pIC50 [8],pIC50 [9],"Kd [1, 10] [nM]","Kd [2, 10] [nM]","Kd [3, 10] [nM]","Kd [5, 10] [nM]",Structure (SMILES)
1 to 50,50 to 300,1 to 50,,1 to 50,,,,7.30 to 10.00,,,,,"COc1cc2[nH]nc(-c3cnc(N4CC(CC#N)(N(C)C(C)C)C4)c(C#N)c3)c2cc1O[C@H](C)c1c(Cl)cncc1Cl [Example 358, (R)-2-(3-(cyanomethyl)-3-(isopropyl(methyl)-amino)azetidin-1-yl)-5-(5-(1-(3,5-dichloropyridin-4-yl)ethoxy)-6-methoxy-1H-indazol-3-yl)nicotinonitrile]"
1 to 50,1 to 50,1 to 50,,1 to 50,,,,7.30 to 10.00,,,,,"COc1cc2[nH]nc(-c3cnc(N4CC(N)(Cc5ccn(C)n5)C4)c(C#N)c3)c2cc1O[C@H](C)c1c(Cl)cncc1Cl [Example 366, (R)-2-(3-amino-3-((1-methyl-1H-pyrazol-3-yl)methyl)azetidin-1-yl)-5-(5-(1-(3,5-dichloropyridin-4-yl)ethoxy)-6-methoxy-1H-indazol-3-yl)nicotinonitrile]"
1 to 50,1 to 50,1 to 50,,1 to 50,,,,7.30 to 10.00,,,,,"COc1cc2[nH]nc(-c3cnc(N4CCC(C)(N)CC4)c(C#N)c3)c2cc1O[C@H](C)c1c(Cl)cncc1Cl [Example 368, (R)-2-(4-amino-4-methylpiperidin-1-yl)-5-(5-(1-(3,5-dichloropyridin-4-yl)ethoxy)-6-methoxy-1H-indazol-3-yl)nicotinonitrile]"
1 to 50,1 to 50,1 to 50,,1 to 50,,,,7.30 to 10.00,,,,,"COc1cc2[nH]nc(-c3cnc(N4CC(C)(O)C4)c(C#N)c3)c2cc1O[C@H](C)c1c(Cl)cncc1Cl [Example 370, 5-[5-[(1R)-1-(3,5-dichloro-4-pyridyl)ethoxy]-6-methoxy-1H-indazol-3-yl]-2-(3-hydroxy-3-methyl-azetidin-1-yl)pyridine-3-carbonitrile]"
,,,,,,,,7.30 to 10.00,1 to 50,1 to 50,1 to 50,1 to 50,"COc1cc2[nH]nc(-c3cnc(N4CC[C@@](C)(NCC5CC5)C4)c(C#N)c3)c2cc1O[C@H](C)c1c(Cl)cncc1Cl [Example 409, 2-((R)-3-((cyclo-propylmethyl)-amino)-3-methylpyrrolidin-1-yl)-5-(5-((R)-1-(3,5-dichloropyridin-4-yl)ethoxy)-6-methoxy-1H-indazol-3-yl)nicotinonitrile]"
,,,,,,,,7.30 to 10.00,,,,,"COc1cc2[nH]nc(-c3cnc(N4CCC(C)(NCC5CC5)CC4)c(C#N)c3)c2cc1O[C@H](C)c1c(Cl)cncc1Cl [Example 411, (R)-2-(4-((cyclo-propylmethyl)amino)-4-methylpiperidin-1-yl)-5-(5-(1-(3,5-dichloropyridin-4-yl)ethoxy)-6-methoxy-1H-indazol-3-yl)nicotinonitrile]"
